Measured values as given in EP0186275A2, “2-Substituted amino-4(1H)-pyrimidone derivatives, their production, and medical compositions containing them” (YAMANOUCHI PHARMACEUTICAL CO. LTD., priority 1984, dated 1986).
Where a name gives a salt, the structure may show the parent alone.

What was measured:
Male Wistar rats [1] = assay: Gastric cytoprotection (ethanol ulcer rat); format: in vivo
Experimental: 3) Gastric cytoprotection: Male Wistar rats (about 200 […]) were starved for 24 hours and deprived of water for 18 hours prior to the experiment. Absolute ethanol (1 ml/rat) was given orally to rats one hour after p.o. administration of the test compounds. One hour later, animals were sacrificed for the measurement of gastric lesions (mm^2).

Male Wistar rats [2] = assay: Gastric secretion inhibiting activity (pylorus-ligated rat, 4hr. shay rat); format: in vivo
Experimental: 2) Gastric secretion inhibiting activity: Male Wistar rats (about 200 g) were fasted but allowed free access to water for 24 hours prior to the experiment. The pylorus was ligated after abdominal midline incision under ether anesthesia. Four hours later, the animals were killed for the collection of gastric juice. The test compounds were given p.o. 1 hour before the pylorus ligation. Gastric juice (0.5 ml) was titrated against 0.05 N NaOH up to pH 7.0 to determine acid concentration using an automatic titrator (Hiranuma Sangyo Co., Comtite 7). The total acid output was calculated as the product of gastric volume by acid concentration.

histamine H2-receptor = molecular target: T1, histamine H2-receptor (Cavia porcellus, UniProt P47747); assay: H2-Blocking activity (isolated guinea pig atrium, chronotropic response to histamine); format: cell-based; settings: isolated guinea pig atrium; test drugs 30 min. before 5 x 10^-6M histamine; dose producing 50% blockade of chronotropic response; read-out: 1)H2-bloc-kade guinea pig atrium ED50
T1 construct: The atrium isolated from quinea-pigs was mounted in an organ bath; from tissue; host or cells: isolated guinea pig atrium
T1 sequence (P47747 whole entry): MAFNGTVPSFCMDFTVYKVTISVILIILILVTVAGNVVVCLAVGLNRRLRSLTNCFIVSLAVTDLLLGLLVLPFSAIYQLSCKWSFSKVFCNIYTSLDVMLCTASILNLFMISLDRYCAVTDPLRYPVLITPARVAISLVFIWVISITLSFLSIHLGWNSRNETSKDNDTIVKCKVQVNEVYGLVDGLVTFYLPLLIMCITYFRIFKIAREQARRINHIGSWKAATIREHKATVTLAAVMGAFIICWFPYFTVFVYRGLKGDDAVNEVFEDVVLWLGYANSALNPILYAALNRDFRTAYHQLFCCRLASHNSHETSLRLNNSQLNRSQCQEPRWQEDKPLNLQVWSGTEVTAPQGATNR
Experimental: In addition, the experiments were performed using a known compound, TZU-0460, i. e., N-[3-(3-(1-piperi- dinylmethyl)phenoxy]propyl]acetoxyacetamide hydrochloride shown by the following formula [drawing 9] HC1 disclosed in European Patent No. 24,510. • 1. Experimental procedure • 1) H2-Blocking activity:
The atrium isolated from quinea-pigs was mounted in an organ bath containing Krebs-Henseleit solution gassed with 95% 02 and 5% C02 at 37°C. The spontaneous movement of the atrium was recorded through a strain gauge (Nihon Koden, SB-1T) on a polygraph (Nihon Koden, RM-6200). The tissue was exposed to test drugs 30 min. before treatment with 5 x 10-^6M histamine. The dose of test drugs producing 50%blockade of chronotropic response to histamine was obtained from each preparation.

Acute toxicity LD50 iv = settings: in vivo, species not given
[3] = po, 1 h, p.o., absolute ethanol (1 ml/rat) orally one hour after test compound; gastric lesions measured one hour later; read-out: 3)Cytopro-tection ethanol ulcer rat ED50(mg/kg p.o.)
[4] = Rattus norvegicus, po, 4 h; p.o. 1 hour before pylorus ligation; gastric juice collected four hours later; total acid output; read-out: 2)Anti-secretion 4hr. shay rat ED50 (mg/kg p.o.)

Compound	IC50 (histamine H2-receptor)	ED50 (Male Wistar rats [1]; [3])	ED50 (Male Wistar rats [2]; [4])	LD50 (Acute toxicity LD50 iv)	ED50 (Male Wistar rats [1]; Rattus norvegicus, po, 1 h, read-out: 3)Cytopro-tection ethanol ulcer rat ED50(mg/kg p.o.))	ED50 (Male Wistar rats [2]; Rattus norvegicus, po, 4 h, read-out: 2)Anti-secretion 4hr. shay rat ED50 (mg/kg p.o.))
CCCCCCCc1c(C)[nH]c(NCCCOc2cccc(CN3CCCCC3)c2)nc1=O [Example 1, 5-heptyl-6-methyl-2-[3-[m-(piperidinomethyl)phenoxy]-propylamino]-4(lH)-pyrimidone di-hydrochloride]	> 1000 nM	6 mg/kg	2.6 mg/kg			
CCCCc1c(C)[nH]c(NCCCOc2cccc(CN3CCCCC3)c2)nc1=O [Example 4, 5-butyl-6-methyl-2-L3-[m-(piperidinomethyl)phenoxy]propylamino]-4(1H)-pyrimidone dihydrochloride]	420 nM	5.8 mg/kg	6.4 mg/kg	61.1 mg/kg		
CCCCCc1c(CC)[nH]c(NCCCOc2cccc(CN3CCCCC3)c2)nc1=O [Example 5, 6-Ethyl-5-pentyl-2-f3-[m-(piperidinomethyl)phenoxy]-propylamino]-4(lH)-pyrimidone dihydrochloride-dihydrate]	8900 nM	9.6 mg/kg	19 mg/kg			
CCCc1c(C)[nH]c(NCCCOc2cccc(CN3CCCCC3)c2)nc1=O [Example 7, 6-Methyl-2-[3-[m-(piperidinomethyl)phenoxy]propylamino]-5-propyl-4(lH)-pyrimidone]	510 nM	6.6 mg/kg	6.1 mg/kg			
CC=CCc1c(C)[nH]c(NCCCOc2cccc(CN3CCCC(C)C3)c2)nc1=O (centres unmarked) [Example 12, 5-(2-Butenyl)-6-methyl-2-[3-[m-(3-methylpiperidino-methyl)phenoxy]propylamino]-4(1H)-pyrimidone]	610 nM	6.7 mg/kg	16.4 mg/kg	42.5 mg/kg		
CC(=O)OCC(=O)NCCCOc1cccc(CN2CCCCC2)c1 [TZU-0460, N-[3-(3-(1-piperi-dinylmethyl)phenoxy]propyl]acetoxyacetamide hydrochloride, reference compound]	370 nM				46.4 mg/kg	35.1 mg/kg

Now from value to compound, other results behind:

IC50 (histamine H2-receptor)	Compound	ED50 (Male Wistar rats [1]; [3])	ED50 (Male Wistar rats [2]; [4])	LD50 (Acute toxicity LD50 iv)	ED50 (Male Wistar rats [1]; Rattus norvegicus, po, 1 h, read-out: 3)Cytopro-tection ethanol ulcer rat ED50(mg/kg p.o.))	ED50 (Male Wistar rats [2]; Rattus norvegicus, po, 4 h, read-out: 2)Anti-secretion 4hr. shay rat ED50 (mg/kg p.o.))
210 nM	C#CCc1c(C)[nH]c(NCCCOc2cccc(CN3CCCCC3)c2)nc1=O [Example 9]	23.3 mg/kg	3.1 mg/kg			
820 nM	CC=CCc1c(C)[nH]c(NCCCOc2cccc(CN3CCCC3)c2)nc1=O [Example 14, 5-(2-Butenyl)-6-methyl-2-[3-[m-(pyrrolidinylmethyl)-phenoxy]propylamino]-4(1H)-pyrimidone]	41.4 mg/kg	9.9 mg/kg			
400 nM	CCSCCc1c(C)[nH]c(NCCCOc2cccc(CN3CCCCC3)c2)nc1=O [Example 15, 5-(2-Ethylthioethyl)-6-methyl-2-[3-[m-(piperidinomethyl)phenoxy]propylamino]-4(lH)-pyrimidone]	25.4 mg/kg	10.9 mg/kg			
360 nM	CC(C)=CCc1c(C)[nH]c(NCCCOc2cccc(CN3CCCCC3)c2)nc1=O [Example 26, 6-methyl-5-(3-methyl-2-butenyl)-2-[3-[m-(piperidinomethyl)phenoxy]propylamino]-4(1H)-pyrimidone]	20.5 mg/kg	5.2 mg/kg			
170 nM	C=CCc1c(C)[nH]c(NCCCOc2cccc(CN3CCCC(C)C3)c2)nc1=O (centres unmarked) [Example 30, 5-(2-Propenyl)-6-me thyl-2-[3-[m-(3-methylpiperidi-nomethyl)phenoxy]propylamino]-4(lH)-pyrimidone]	17 mg/kg	18 mg/kg			
290 nM	C=C(C)Cc1c(C)[nH]c(NCCCOc2cccc(CN3CCCC(C)C3)c2)nc1=O (centres unmarked) [Example 31, 6-Methyl-2-[3-[m-(3-methylpiperidinomethyl)pheno- : xy]propylamino]-5-(2-methyl-2-propenyl)-4(lH)-pyrimidone]	13.6 mg/kg	30.1 mg/kg			
